Assay results: US6413775B1, “Polyamine analog-activated SSAT gene therapy” (Health Research, Inc., priority 1999, dated 2002)
Like-named read-outs stand apart in the source and are kept apart here.

What was measured:
[1] = test system: MCF-7/hSc clone H-10 cells; assay: Growth inhibition and dose-response of clone H-10 cells (MCF-7/hSc) ±Dox by DENSPM; format: cell-based, human; conditions: for growth inhibition: by 48 h; for Growth Effects: Onset of cytotoxicity: DENSPM 10 μM
Protocol: (§1) A MCF-7 breast carcinoma cell line stably transfected with a tetracycline-off transfection system was purchased from Clontech Laboratories Inc. (Palo Alto, Calif.). The cells were cultured in Dulbecco's Modified Eagle's Medium (DMEM; Life Technologies, Gaithersburg, Md.), supplemented with 2 mM glutamine, 10% fetal bovine serum, penicillin at 100 U/ml, streptomycin at 100 U/ml and the antibiotic G418 (Life Technologies) at 100 μg/ml at 37° C. in the presence of 5% CO2.Cells were harvested by trypsinization and counted electronically (Coulter Model ZM, Coulter Electronics, Hialeah, Fla.). During treatment with polyamines or analogs, 1 mM aminoguanidine was routinely included in the media to prevent enzymatic oxidation to toxic products.
(§2) Relative growth inhibition by DENSPM. The relative antiproliferative effect exerted by DENSPM in H-10 and M-3 cells grown ±Dox was studied over an extended (8 d) time period. As shown in the FIG. 9, H-10-Dox cells were strikingly more sensitive to the antiproliferative action of the DENSPM than +Dox cells. Less than 15% growth inhibition was achieved by 48 h in +Dox H-10 cells compared to >80% in −Dox cells (FIG. 9). […] As a generality, DENSPM-mediated growth inhibition tended to be more cytotoxic during SSAT induction as indicated by the rapid loss in cell number (FIG. 9).
The increased sensitivity of SSAT induced H-10 cells to DENSPM was quantitated by dose-response analysis. Cells were grown for 48 h ±Dox and then exposed to increasing concentrations of DENSPM for 48 h (FIG. 10). In the IC50 comparisons, −Dox cells were about approximately 100-fold more sensitive to DENSPM than +Dox cells (i.e. comparing IC50 values of 0.2 and 20 μM, respectively).

[2] = test system: MCF-7/mSg clone M-3 cells; assay: Growth inhibition of clone M-3 cells (MCF-7/mSg) ±Dox by DENSPM; format: cell-based, human
Protocol: as §1, §2

[3] = test system: spermidine-spermine N^1-acetyltransferase (SSAT); conditions: in many tumor cells; cited from earlier work
[4] = test system: spermidine-spermine N^1-acetyltransferase (SSAT); assay: SSAT enzyme activity in clone H-10 cells ±Dox treated with DENSPM; format: cell-based, human; conditions: for increase in SSAT activity: 10 μM DENSPM; for DENSPM-induced SSAT activity: cells transfected with human SSAT cDNA; for SSAT Activity / SSAT Effects: Activity (fold): 48 h; for SSAT Activity: relative to closed untreated = 1; for SSAT Effects: Activity (fold): DENSPM 10 μM
Protocol: as §1
(§3) Total RNA was extracted with guanidine isothiocyanate and purified by the commonly used cesium chloride gradient centrifugation. Human SSAT cDNA probe (Xiao et al, 1991, supra) was used in Northern blot analyses. ODC and SSAT enzyme activities were assayed as reported earlier (Kramer et al., 1995, J. Biol. Chem. 270, 2124-2132.31). Polyamines, their acetylated derivatives and the polyamine analog DENSPM were measured by high performance liquid chromatography as previously described in detail by Kramer et al. (Kramer et al., 1993, supra), which method is incorporated herein by reference.
(§4) To enhance the growth inhibitory effects of DENSPM, and to more definitively examine the relationship between SSAT overexpression and cell growth, a cell line was developed in which SSAT expression is conditionally regulated by doxycycline (DOX) an analog of tetracycline which penetrates cells more effectively. MCF-7 cells containing the pTet-Off plasmid were transfected with the PTRE/expression plasmids described above using the Lipofectin method (Notarangelo et al., 1997, Focus, 19, 58-59, incorporated herein by reference). To facilitate clone selection, cells were co-transfected with a pTK-Hyg vector (Clontech Laboratories, Inc.). Transfected clones resistant to […] hygromycin were selected and tested for SSAT enzyme activity and/or mRNA in the presence or absence of 200 ng/ml Dox [+Dox and −Dox, respectively (Clontech Laboratories, Inc)]. In the presence of Dox, SSAT transcription is closed; in the absence of Dox, SSAT transcription is open. […] Clones, which expressed the lowest basal levels of SSAT activity or mRNA in +Dox and the greatest induced level of SSAT activity or mRNA −Dox, were selected for further study. Clones were maintained continuously under +Dox conditions until experiments were initiated.
(§5) In this table are presented the effects of conditional overexpression on DENSPM induced SSAT mRNA and activity and on polyamine pool depletion. When exposed to 10 μM DENSPM for 24 h, MRNA levels increased by 4-fold in induced cells and remained at ^˜20-fold in uninduced cells. Presumably, some rate-limiting step prevented DENSPM from increasing MRNA beyond the already high levels in these cells.

[5] = test system: Polyamine pools in H-10 cells; assay: Polyamine pools by HPLC in H-10 cells ±Dox treated with DENSPM; format: cell-based, human; conditions: for Polyamine Pools: AcSpd / Polyamine Pools: AcSpm / Polyamine Pools: Put / Polyamine Pools: Spd / Polyamine Pools: Spm: 48 h
Protocol: as §1, §3, §5

[6] = test system: ornithine decarboxylase (ODC); assay: ODC enzyme activity in H-10 cells treated with DENSPM; format: cell-based, human; conditions: both +Dox and -Dox cells, irrespective of SSAT induction
Protocol: as §1
as §3, with “reference. […]” for “reference.”

SSAT mRNA = assay: Northern blot analysis of SSAT mRNA in clone H-10 cells ±Dox treated with DENSPM; format: cell-based, human; conditions: for SSAT mRNA / SSAT Effects: mRNA (fold): 48 h; for SSAT mRNA: relative to closed untreated = 1; for SSAT Effects: mRNA (fold): DENSPM 10 μM
Protocol: as §1, §3, §4, §5

CCNCCCNCCCNCCCNCC [DENSPM, N^1, N^11diethylnorspermine]
growth inhibition ([1]; +Dox H-10 cells): Less than 15%
IC50 ([1]; +Dox H-10 cells, grown 48 h ±Dox, then DENSPM 48 h, read-out: IC50 of DENSPM (growth)): 20 µM
growth inhibition ([1]; -Dox H-10 cells): > 80%
IC50 ([1]; -Dox H-10 cells, grown 48 h ±Dox, then DENSPM 48 h, read-out: IC50 of DENSPM (growth)): 0.2 µM
IC50 ([1]; Closed (Dox 200 ng/ml), 48 h, read-out: Growth Effects: IC50 Dose): 200 µM
Growth Effects: Onset of cytotoxicity ([1]; Closed (Dox 200 ng/ml)): 4 days
Growth Effects: Onset of cytotoxicity ([1]; Open (no Dox)): immediate
growth inhibition ([2]; induced M-3 cells): 78%
growth inhibition ([2]; uninduced M-3 cells): 25%
induction of SSAT activity [3]: exceed 1000 fold
increase in SSAT activity ([4]; +Dox cells): > 80 fold
DENSPM-induced SSAT activity ([4]; +Dox conditions (closed)): ~90 fold
increase in SSAT activity ([4]; -Dox cells): > 1500 fold
DENSPM-induced SSAT activity ([4]; -Dox conditions (open)): 1700 fold
SSAT Activity ([4]; Closed (+Dox) +DENSPM): 89 X
SSAT Effects: Activity (fold) ([4]; Closed (Dox 200 ng/ml)): 89X fold
SSAT Activity ([4]; Open (-Dox) +DENSPM): 1,700 X
SSAT Effects: Activity (fold) ([4]; Open (no Dox)): 1700X fold
difference in SSAT activity with DENSPM treatment, open vs closed ([4]; from Table 3): about 20 fold
Polyamine Pools: AcSpd ([5]; Closed (+Dox) +DENSPM): 20 pmol/10^6 cells
Polyamine Pools: AcSpm ([5]; Closed (+Dox) +DENSPM): 50 pmol/10^6 cells
Polyamine Pools: Put ([5]; Closed (+Dox) +DENSPM): 50 pmol/10^6 cells
Polyamine Pools: Spd ([5]; Closed (+Dox) +DENSPM): 110 pmol/10^6 cells
Polyamine Pools: Spm ([5]; Closed (+Dox) +DENSPM): 750 pmol/10^6 cells
Polyamine Pools: AcSpd ([5]; Open (-Dox) +DENSPM): <5 pmol/10^6 cells
Polyamine Pools: AcSpm ([5]; Open (-Dox) +DENSPM): 20 pmol/10^6 cells
Polyamine Pools: Put ([5]; Open (-Dox) +DENSPM): <5 pmol/10^6 cells
Polyamine Pools: Spd ([5]; Open (-Dox) +DENSPM): <5 pmol/10^6 cells
Polyamine Pools: Spm ([5]; Open (-Dox) +DENSPM): 65 pmol/10^6 cells
depletion of all three polyamines ([5]; by 48 h, both +Dox and -Dox cells): near total depletion
effect on ODC activity [6]: suppressed ODC activity
SSAT mRNA levels increase (SSAT mRNA; 10 μM DENSPM for 24 h, 'induced cells' as printed): 4 fold
SSAT mRNA levels (SSAT mRNA; 10 μM DENSPM for 24 h, 'uninduced cells' as printed): ~20 fold
SSAT mRNA (SSAT mRNA; Closed (+Dox) +DENSPM): 8 X
SSAT Effects: mRNA (fold) (SSAT mRNA; Closed (Dox 200 ng/ml)): 8X fold
SSAT mRNA (SSAT mRNA; Open (-Dox) +DENSPM): 20 X
SSAT Effects: mRNA (fold) (SSAT mRNA; Open (no Dox)): 20X fold
